Results published in US20130196050A1, “SALTY TASTE ENHANCER” (AJINOMOTO CO., INC., priority 2010, published 2013).

Target: T1, Human ENaC δ, β and γ subunit (Homo sapiens, UniProt P51168+P51170+P51172)
T1 construct: expressed in transfected cells; host or cells: Xenopus laevis (African clawed frog) oocytes injected with cRNA
T1 sequence (P51172 1-638 isoform P51172-1): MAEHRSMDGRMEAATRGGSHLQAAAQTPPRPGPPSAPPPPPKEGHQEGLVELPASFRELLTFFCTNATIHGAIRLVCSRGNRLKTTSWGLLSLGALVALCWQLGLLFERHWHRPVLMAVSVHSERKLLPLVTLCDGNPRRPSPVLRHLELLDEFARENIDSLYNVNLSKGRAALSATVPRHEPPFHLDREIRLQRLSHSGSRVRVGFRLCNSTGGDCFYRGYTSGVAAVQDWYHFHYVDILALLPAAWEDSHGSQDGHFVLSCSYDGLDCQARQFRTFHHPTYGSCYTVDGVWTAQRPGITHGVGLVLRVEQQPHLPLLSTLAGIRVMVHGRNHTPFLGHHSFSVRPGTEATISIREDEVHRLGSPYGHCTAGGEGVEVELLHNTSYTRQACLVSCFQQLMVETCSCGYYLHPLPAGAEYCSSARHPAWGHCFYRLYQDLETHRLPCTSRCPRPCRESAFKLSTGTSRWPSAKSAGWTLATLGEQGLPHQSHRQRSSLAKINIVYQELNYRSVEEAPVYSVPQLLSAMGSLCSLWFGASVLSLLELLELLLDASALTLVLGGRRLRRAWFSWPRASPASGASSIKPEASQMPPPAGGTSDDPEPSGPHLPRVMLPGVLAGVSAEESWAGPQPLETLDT
T1 sequence (P51168 1-640): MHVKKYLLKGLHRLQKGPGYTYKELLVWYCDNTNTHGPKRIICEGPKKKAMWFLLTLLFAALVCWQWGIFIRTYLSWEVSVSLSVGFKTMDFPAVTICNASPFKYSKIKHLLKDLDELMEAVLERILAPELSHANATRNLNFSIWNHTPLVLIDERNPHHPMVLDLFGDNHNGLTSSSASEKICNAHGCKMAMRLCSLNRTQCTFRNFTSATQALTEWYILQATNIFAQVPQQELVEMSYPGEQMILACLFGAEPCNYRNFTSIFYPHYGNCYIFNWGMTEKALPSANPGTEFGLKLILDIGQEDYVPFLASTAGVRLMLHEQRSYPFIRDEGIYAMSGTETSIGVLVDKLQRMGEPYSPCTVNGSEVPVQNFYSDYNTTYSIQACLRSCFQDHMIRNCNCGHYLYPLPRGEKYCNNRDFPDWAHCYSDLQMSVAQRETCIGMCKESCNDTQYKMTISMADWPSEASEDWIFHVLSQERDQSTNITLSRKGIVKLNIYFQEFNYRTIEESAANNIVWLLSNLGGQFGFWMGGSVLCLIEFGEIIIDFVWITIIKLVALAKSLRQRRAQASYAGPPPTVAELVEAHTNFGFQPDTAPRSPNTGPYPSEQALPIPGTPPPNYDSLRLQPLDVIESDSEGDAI
T1 sequence (P51170 1-649): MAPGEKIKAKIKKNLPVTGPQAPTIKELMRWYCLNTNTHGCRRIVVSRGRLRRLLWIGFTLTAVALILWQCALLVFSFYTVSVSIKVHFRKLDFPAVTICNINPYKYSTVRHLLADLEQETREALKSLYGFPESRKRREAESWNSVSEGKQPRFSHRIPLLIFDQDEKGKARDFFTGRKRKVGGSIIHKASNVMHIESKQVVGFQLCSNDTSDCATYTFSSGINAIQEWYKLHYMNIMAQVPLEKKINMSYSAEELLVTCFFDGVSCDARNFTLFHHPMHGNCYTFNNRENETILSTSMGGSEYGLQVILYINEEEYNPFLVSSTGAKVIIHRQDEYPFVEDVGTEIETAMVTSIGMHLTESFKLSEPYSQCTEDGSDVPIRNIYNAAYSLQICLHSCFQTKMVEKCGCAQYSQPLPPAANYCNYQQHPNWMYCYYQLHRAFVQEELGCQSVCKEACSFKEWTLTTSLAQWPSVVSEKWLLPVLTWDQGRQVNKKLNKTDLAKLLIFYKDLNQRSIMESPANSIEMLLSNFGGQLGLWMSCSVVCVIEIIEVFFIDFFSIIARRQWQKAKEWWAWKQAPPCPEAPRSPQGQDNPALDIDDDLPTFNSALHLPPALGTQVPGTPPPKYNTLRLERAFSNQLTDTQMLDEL
Assay: Measurement of ENaC activation potency (two electrode voltage clamp current in ENaC-expressing oocyte)
Assay type: cell-based
Details: lowest concentration increasing the current value by not less than 10% vs before addition
Protocol: ENaC activation current value, namely, the inward current in ENaC-expressing oocyte was measured as follows.
According to the method described in Motonao Nakamura, Takao Shimizu: Experiment of African clawed frog oocyte, Experimental Medicine Vol. 11, No. 3, 224-232 (1993), oocyte was collected from African clawed frog, […], and the current value was measured by a Two Electrode Voltage Clamp technique. In the present invention, ND96 (96 mM NaCl, 2 mM KCl, 1 mM MgCl2, 5 mM Hepes, 1.8 mM CaCl2, pH 7.6) was used instead of MBS buffer in the above-mentioned document. Injector NANOLITER 2000 manufactured by World Precision Instruments was used for microinjection, OpusXpress 6000A manufactured by Molecular Devices was used for current value measurement by a Two Electrode Voltage Clamp technique, and Clampfit 10.2 software manufactured by Molecular Devices was used for data analysis.
Human ENaC δ, β and γ subunit genes shown by SEQ ID NOs: 1, 2 and 3, respectively, in the Sequence Listing were each cloned into a plasmid vector, and used as a template DNA for cRNA synthesis. cRNA was synthesized using MEGAscript kit manufactured by Ambion and according to the method of the manual of the manufacturer.
A mixture of the same amount of ENaC δ subunit cRNA (0.4 to 0.8 μg/μL), and β and γ subunits cRNA (0.4 μg/μL) was injected into the oocyte of African clawed frog at 27.6 nL per oocyte, and the oocyte was cultured for 16 hours to 72 hours. Thereafter, the oocyte was set on a measuring apparatus OpusXpress 6000A, the electrodes were inserted into the oocyte, the voltage was clamped at a level lower by −30 mV than the resting membrane potential by a Two Electrode Voltage Clamp technique, and the current value was measured.
To measure the ENaC activation potency, oocyte was stimulated with each test compound, and the minimum effective dose (hereinafter to be abbreviated as MED) of the compound at the time point when the electric current started to increase was measured. In this case, the minimum effective dose of the stimulation compound that increased the current value by not less than 10%, as compared to the current value before addition of the compound and without stimulation, was taken as MED. A smaller MED means higher ENaC activation potency.
Each test compound was directly dissolved in ND96, or first dissolved in dimethyl sulfoxide (DMSO) to 100 mM, and then prepared by diluting the solution with ND96 to a concentration used for the evaluation. The concentration of the test compound in ND96 was prepared to various concentrations within the range of 0.1 nM to 300 μm.
ND96 as a perfusion fluid was flowed at a rate of 0.5 mL/min through the measuring apparatus OpusXpress 6000A on which ENaC-expressing oocyte was set, the perfusion fluid was temporarily stopped every 3 minutes to add a test compound solution (0.25 mL) dissolved in ND96 at a rate of 0.5 mL/minute. In this way, the test compound was contacted with ENaC-expressing oocyte, and whether ENaC is activated by the compound was examined by measuring the current value. After addition of the test compound, feeding of the perfusion fluid was resumed to wash away the compound to be ready for the next addition of the compound.
The compound was added successively from a low concentration to a high concentration to stimulate ENaC-expressing oocyte. The concentrations actually added was, for example, 1 nM, 3 nM, 10 nM, 30 nM, 100 nM, 300 nM; 1 μM, 3 μM, 10 μm, 30 μm, 100 μm, 300 μm; 1.2 μM, 6 μM, 30 μm, 150 μm of one test compound. The compound was added from low concentrations to high concentrations at 3 minute intervals. The first compound was added from a low concentration to a high concentration, then the second and the third compounds were similarly added successively to the same oocyte, and changes in the current value were measured. The current value was continuously measured from the start to the end of the experiment. […]

COC(=O)[C@H](Cc1cn(C)c2ccccc12)NC(=O)c1c(O)cccc1O [Example 11]
MED value (minimum effective dose): 3 µM

O=C(N[C@H](Cc1c[nH]c2ccccc12)C(=O)O)c1cc(O)ccc1O [Example 41]
MED value (minimum effective dose): 1 µM

O=C(NCCc1c[nH]c2ccc(O)cc12)c1c(O)cc(O)cc1O [Example 28]
MED value (minimum effective dose): 1 to 3 µM

O=C(NCCc1c[nH]c2ccc(O)cc12)c1c(C(F)(F)F)cccc1C(F)(F)F [Example 26]
MED value (minimum effective dose): 6 µM

COC(=O)[C@H](CCc1ccccc1)NC(=O)c1c(O)cc(C)cc1O [Example 116]
MED value (minimum effective dose): 3 to 10 µM

O=C(N[C@@H](Cc1ccccc1)C(=O)O)c1ccc(Br)cc1O [Example 108]
MED value (minimum effective dose): 0.1 to 0.3 µM

O=C(NC(Cc1c[nH]c2cc(F)ccc12)C(=O)O)c1c(O)cccc1O (centres unmarked) [Example 19]
MED value (minimum effective dose): 1 µM

O=C(NCCc1c[nH]c2ccc(O)cc12)c1cccc(O)c1O [Example 32]
MED value (minimum effective dose): 1.2-6^ μM

CN(C(=O)CCc1ccccc1)[C@@H](Cc1ccccc1)C(=O)O [Example 78]
MED value (minimum effective dose): 3 µM

O=C(NCCc1c[nH]c2ccc(O)cc12)c1ccccc1O [Example 6]
MED value (minimum effective dose): 3 µM

O=C(NCCc1c[nH]c2ccc(O)cc12)c1cc(Br)ccc1O [Example 93]
MED value (minimum effective dose): 0.3 µM

N[C@@H](Cc1ccccc1)C(=O)Nc1c(O)cccc1O [Example 80]
MED value (minimum effective dose): 3 µM

O=C(N[C@@H](Cc1c[nH]c2ccccc12)C(=O)O)c1c(O)cc(O)cc1O [Example 121]
MED value (minimum effective dose): 3 µM

O=C(NCCc1c[nH]c2ccccc12)c1c(O)cccc1O [Example 84]
MED value (minimum effective dose): 0.3 µM

Cc1ccc2c(CC(NC(=O)CCc3ccccc3)C(=O)O)c[nH]c2c1 (centres unmarked) [Example 77]
MED value (minimum effective dose): 1 to 3 µM

O=C(CCc1ccccc1)N[C@@H](Cc1c[nH]c2ccc(O)cc12)C(=O)O [Example 74]
MED value (minimum effective dose): 10 µM

O=C(CCc1ccccc1)N[C@@H](Cc1c[nH]c2ccccc12)C(=O)O [Example 63]
MED value (minimum effective dose): 1 to 3 µM

O=C(N[C@@H](Cc1c[nH]c2ccc(O)cc12)C(=O)O)c1c(O)cccc1O [Example 12]
MED value (minimum effective dose): 3 µM

N[C@@H](CCc1ccccc1)C(=O)Nc1c(O)cccc1O [Example 81]
MED value (minimum effective dose): 3 µM

O=C(CCc1ccc2c(c1)OCO2)N[C@@H](Cc1c[nH]c2ccccc12)C(=O)O [Example 66]
MED value (minimum effective dose): 3 µM

O=C(N[C@H](Cc1c[nH]c2ccccc12)C(=O)O)c1c(O)cccc1O [Example 4]
MED value (minimum effective dose): 0.6 µM

CCOC(=O)[C@H](Cc1ccccc1)NC(=O)c1cc(Br)ccc1O [Example 109]
MED value (minimum effective dose): 3 µM

O=C(NCCc1c[nH]c2ccccc12)c1c(O)cc(O)cc1O [Example 125]
MED value (minimum effective dose): 1 µM

COC(=O)[C@@H](Cc1c[nH]c2ccccc12)NC(=O)c1c(O)cccc1O [Example 2]
MED value (minimum effective dose): 0.6 µM

COC(=O)[C@H](Cc1c[nH]c2ccccc12)NC(=O)c1ccc(Br)cc1O [Example 106]
MED value (minimum effective dose): 3 µM

Cc1cc(O)c(C(=O)N[C@@H](Cc2ccccc2)C(=O)O)c(O)c1 [Example 115]
MED value (minimum effective dose): 0.3 µM

COc1ccc(CCC(=O)N[C@@H](Cc2c[nH]c3ccccc23)C(=O)O)cc1 [Example 65]
MED value (minimum effective dose): 3 µM

COC(=O)[C@H](Cc1ccccc1)NC(=O)c1cc(Br)ccc1O [Example 96]
MED value (minimum effective dose): 1 µM

O=C(CCc1ccccc1)N[C@@H](Cc1ccccc1)C(=O)O [Example 72]
MED value (minimum effective dose): 1 to 3 µM
